Bounds are passed on as bounds.

Take `Nc1nc(-c2cncs2)c2nc[nH]c2n1` [Example 137, 6-(5-Thiazolyl)-1H-purine-2-amine]: the melting point is 300 °C (dec.).

For `O=C(Nc1ccccc1)Nc1nc(-c2ccco2)c2nc[nH]c2n1` [Example 23, N-(6-(2-Furyl)-1H-purine-2-yl)-N'-phenylurea], the melting point is > 330 °C (dec.). The same measure for `CS(=O)(=O)Nc1ccccc1Cn1cnc2c(-c3ccco3)nc(N)nc21` [Example 210, 6-(2-Furyl)-9-(2-methanesulphonylaminobenzyl)-9H-purine-2-amine]: 254.7 to 255.3 °C; for `Cc1nc(-c2ccco2)c2nc[nH]c2n1` [Example 153, 6.(2-Furyl)-2-methyl-1H-purine]: 342 °C (dec.).

As for `CCOC(=O)Cn1cnc2c(-c3ccco3)nc(N(C)C)nc21` [Example 71, Ethyl 2-dimethylamino-6-(2-furyl)-9H-purine-9-acetate], the melting point fell in the range of 180.6 to 181.8 °C. Regarding `COc1nc(-c2ccco2)c2ncn(COCC[Si](C)(C)C)c2n1`, the melting point is 79.6 °C (dec.).

On to `CNc1nc(-c2ccco2)c2ncn(COCC[Si](C)(C)C)c2n1`, for which the melting point was 160.1 to 160.8 °C. `CC(C)(C)OC(=O)n1ccc2c(Cn3cnc4c(-c5ccco5)nc(N)nc43)cccc21` [Example 270, tert-butyl 4-(2-amino-6-(2-furyl)-1H-purine-9-ylmethyl)indole-1-carboxylate] yielded a melting point of 190.4 to 190.5 °C.

On to `COc1cccc(NC(=O)Cn2cnc3c(-c4ccco4)nc(N)nc32)c1` [Example 231, 2-Amino-6-(2-furyl)-N-(3-methoxyphenyl)-9H-purine-9-acetamide], for which the melting point lay within 278.5 to 280.4 °C. For the molecule `Cc1ccc(-c2nc(N)nc3c2ncn3Cc2ccccc2F)nc1` [Example 243, 9-(2-Fluorobenzyl)-6-(5-methyl-2-pyridinyl)-9H-purine-2-amine], the melting point was found to be 299.8 °C. Regarding `Cc1ccc(-c2nc(N)nc3c2ncn3C(=O)NCc2ccccc2)o1` [Example 204, 2-Amino-N-benzyl-6-(5-methyl-2-furyl)-9H-purine-9-carboxamide], the melting point was 160 °C (dec.). In the case of `Nc1nc(-c2ccco2)c2ncn(C(=O)C3CCCCC3)c2n1` [Example 28, 9-Cyclohexylcarbonyl-6-(2-furyl)-9H-purine-2-amine], the melting point was > 300 °C (dec.).

Molecule `CN(C)c1nc(-c2ccco2)c2ncn(COCC[Si](C)(C)C)c2n1` came in with a melting point of 81.5 to 82.2 °C. In the case of `Nc1nc(-c2ccco2)c2ncn(C(=O)Oc3ccccc3)c2n1` [Example 22, Phenyl 2-amino-6-(2-furyl)-9H-purine-9-carboxylate], the melting point is > 300 °C (dec.).

`Cc1ccsc1-c1nc(N)nc2[nH]cnc12` [Example 150, 6-(3-Methyl-2-thienyl)-1H-purine-2-amine] displayed a melting point of 247 to 248 °C. Consider `Nc1nc(-c2ccco2)c2ncn(CC(=O)N3CCCC3)c2n1` [Example 88, 6-(2-Furyl)-9-(2-oxo-2-(1-pyrrolidinyl)ethyl)-9H-purine-2-amine], for which the melting point lay within 283.6 to 283.7 °C. `Nc1nc(-c2ccco2)c2ncn(CC(=O)O)c2n1` [Example 73, 2-Amino-6-(2-furyl)-9H-purine-9-acetic acid]: the melting point was > 300 °C (dec.).

In turn, `Nc1nc(-c2ccco2)c2ncn(Cc3cccc4[nH]ccc34)c2n1` [Example 271, 6-(2-Furyl)-9-(4-indolylmethyl)-9H-purine-2-amine] showed a melting point of 305.4 to 306.8 °C.

On to `CS(=O)(=O)Nc1cccc(Cn2cnc3c(-c4ccco4)nc(N)nc32)c1` [Example 217, 6-(2-Furyl)-9-(3-methanesulphonylaminobenzyl)-9H-purine-2-amine], for which the melting point is 171.2 to 171.3 °C. Then `CC(C)(C)c1ccc(S(=O)(=O)n2cnc3c(-c4ccco4)nc(N)nc32)cc1` [Example 27, 9-(4-tert-Butylphenylsulphonyl)-6-(2-furyl)-9H-purine-2-amine], with 238.7 to 239.2 °C; and `Nc1nc(-c2ccco2)c2ncn(CC(=O)Nc3ccccn3)c2n1` [Example 122, 2-Amino-6-(2-furyl)-N-(2-pyridyl)-9H-purine-9-acetamide], with 242.5 to 243.6 °C. As to `Nc1nc(-c2ccco2)c2ncn(CC(=O)Nc3ccccc3)c2n1` [Example 85, 2-Amino-6-(2-furyl)-N-phenyl-9H-purine-9-acetamide], the melting point was 289.1 to 289.7 °C. Consider `Nc1nc(-c2ccco2)c2ncn(CC(=O)NCc3ccc(Cl)cc3)c2n1` [Example 144, 2-Amino-N-(4-chlorobenzyl)-6-(2-furyl)-9H-purine-9-acetamide], for which the melting point was 277 °C (dec.).

Turning to `COc1ccccc1CNC(=O)Cn1cnc2c(-c3ccco3)nc(N)nc21` [Example 236, 2-Amino-6-(2-furyl)-N-(2-methoxybenzyl)-9H-purine-9-acetamide], the melting point fell in the range of 279.9 to 281 °C.

Molecule `Nc1nc(-c2ccn[nH]2)c2ncn(Cc3ccccc3F)c2n1` [Example 262, 9-(2-Fluorobenzyl)-6-(1H-pyrazol-3-yl)-9H-purine-2-amine] showed a melting point of 257 to 259 °C. Regarding `CC(C)NC(=O)n1cnc2c(-c3ccco3)nc(N)nc21` [Example 30, 2-Amino-6-(2-furyl)N-isopropyl-9H-purine-9-carboxamide], the melting point was > 300 °C (dec.). `Nc1nc(-c2ccco2)c2ncn(CC(=O)NCCc3ccccc3)c2n1` [Example 123, 2-Amino-6-(2-furyl)-N-(2-phenylethyl)-9H-purine-9-acetamide] came in with a melting point of 247.3 to 247.4 °C. Then `Cc1nc(-c2nc(N)nc3[nH]cnc23)no1` [Example 90, 6-(5-Methyl-[1,2,4]-oxadiazol-3-yl)-1H-purine-2-amine], with > 200 °C (dec.); and `COc1ccc(NC(=O)Cn2cnc3c(-c4ccco4)nc(N)nc32)c(C)c1` [Example 169, 2-Amino-6-(2-furyl)-N-(4-methoxy-2-methylphenyl)-9H-purine-9-acetamide], with 287.1 to 288.2 °C; and `NCCn1cnc2c(-c3ccco3)nc(N)nc21` [Example 257, 9-(2-Aminoethyl)-6-(2-furyl)-9H-purine-2-amine], with 190 °C (dec.).

With `Cn1cccc1-c1nc(N)nc2[nH]cnc12` [Example 133, 6-(1-Methyl-1H-pyrrol-2-yl)-1H-purine-2-amine], the melting point was > 240 °C (dec.). On to `OCCNc1nc(-c2ccco2)c2nc[nH]c2n1` [Example 5, N-(2-Hydroxyethyl)-6-(2-furyl)-1H-purine-2-amine], for which the melting point was in the range of 227.1 to 228.1 °C. Turning to `CC(C)(C)OC(=O)n1cnc2c(-c3ccco3)nc(N)nc21` [Example 14, tert-Butyl 2-amino-6-(2-furyl)-9H-purine-9-carboxylate], the melting point was 143.2 to 144.1 °C.

`CN(Cc1ccccc1)C(=O)Cn1cnc2c(-c3ccco3)nc(N)nc21` [Example 145, 2-Amino-N-benzyl-6-(2-furyl)-N-methyl-9H-purine-9-acetamide] yielded a melting point of 224 to 224.1 °C.

In the case of `Nc1nc(-c2ccco2)c2ncn(Cc3ccc(C(=O)O)cc3)c2n1` [Example 216, 4-(2-Amino-6-(2-furyl)-9H-purine-9-ylmethyl)benzoic acid], the melting point fell in the range of 301.1 to 302.1 °C.

The melting point is the temperature of the solid-liquid transition.

The record behind these values is patent US7452894B2, “Purine derivatives as purinergic receptor antagonists” (Vernalis Research Limited, priority 2001, dated 2008).
